Measured values: patent US9040660B2, “Long-acting gastrin derivatives” (priority 2010, dated 2015)
Where two headings read alike, the source gives them in different places. Numbered stars: 1 amine (or outer) side, 2 acyl side, 3 side chain; on linkers, the order of the positions; unused ones are H or OH. Peptide text beside a SMILES is read from it. * marks the point of attachment. C18 diacid = O=C(O)CCCCCCCCCCCCCCCCC(=O)*; γGlu = O=C(O)[C@H](CCC(=O)[*:2])N[*:1]; AEEA = NCCOCCOCC(=O)O

How the values were obtained:
[1] = parameters: species or system Göttingen mini-pigs; details: minipig, in vivo, iv, 10 nmol/kg
Protocol: Assay (II): Minipig i.v. PK
Six male Göttingen mini-pigs weighing approximately 20 to 23 kg from Ellegaard Gottingen Minipigs A/S, Denmark were comprised in the study. The mini-pigs were dosed intra venous (i.v.) via a central catheter in vena cava caudalis. The catheter was flushed with 10 ml saline post administration. Blood was sampled from the central catheter. Test substances were dissolved in a vehicle consisting of in 50 mM sodium phosphate, […] sodium chloride, 0.05% tween80 pH 7.4. The pigs were dosed with 10 nmol of gastrin compound (such as gastrin derivative)/kg body weight or 10 nmol Gastrin-17/kg body weight. Blood samples were taken at the following time points: pre-dose, 5 minutes, 15 minutes, 30 minutes, 45 minutes, 1, 1.5, 2, 3, 4, 6, 8, 10, 24, 48, 72, 96, 120, 168, 192 and 216 hours post dosing. The blood samples were collected into test tubes containing EDTA buffer for stabilization and kept on ice for max. 20 minutes before centrifugation. The centrifugation procedure to separate plasma may be: 4° C., approx. 2500 g for 10 minutes. Plasma was collected and immediately transferred to Micronic tubes stored at −20° C. until assayed.
Blood samples were analysed for gastrin compound content using a competitive scintillation proximity assay (SPA). The assay is a radiometric-ligand binding assay using […]™ imaging particles. The assay involves a rabbit anti-human gastrin-17(2-17) polyclonal antibody, wherein the human gastrin-17(2-17) against which said antibody raised contained position 2-17 of SEQ ID NO:2 (said antibody is obtainable from professor Jens Rehfeld, Rigshospitalet, Copenhagen, Denmark), [^125I]-Tyr^12 gastrin I (human) (which has the sequence pG1u-[…][^125I]Tyr-Gly-Trp-Met-Asp-Phe-NH2, item no. NEX176010UC, […]® Waltham, Massachusetts, USA) and PS […]™ particles coated with anti-rabbit Ig antibodies. Gastrin compounds (in calibrators, controls or unknown samples) and [^125I]-Tyr12 human gastrin I will compete for the binding to the polyclonal rabbit anti human gastrin I antibody. The anti-rabbit Ig antibodies on the […]™ particles recognize the anti-gastrin antibodies bringing the [^125I-] gastrin molecules in close proximity to the […]™ particles resulting in light emission from the particles. The […]™ will image the emitted light that is reversely correlated to the amount of gastrin compound present in the sample. 5μL sample, calibrator or control was applied to white 384-well polystyrene plates followed by 10μantibody working solution (rabbit-anti-Gastrin serum from rabbit 2609 batch 11/10-73), 10μl tracer working solution and 10μl bead working solution. […] After exchanging the seal against a new one, the light emission was detected with a […]™ Multimodality Imaging System. […]
The concentration-response relationship was calculated using a four-parameter logistic model using non linear regression analysis and the output of the assay was the concentration of the respective gastrin analogue in pM. The in vivo plasma half life was determined by non-compartmental analysis (NCA) of plasma concentration-time profiles from each animal. NCA may be carried out as follows: Plasma concentration-time profiles were analyzed by non-compartmental pharmacokinetics analysis (NCA) using WinNonlin (Pharsight Inc., Mountain View, Calif., USA); NCA was performed using the individual plasma concentration-time profiles from each animal.
Half life of gastrin compounds was determined according to Assay (II).

[2] = dog, in vivo; cited from earlier work
[3] = molecular target: T1, CCK2 receptor (gastrin receptor) (Homo sapiens, UniProt P32239); format: cell-based; details: [Leu15] Gastrin-17 = 100, NIH 3T3/CCK2R cells, calcium mobilization
T1 construct: expressed in transfected cells; host or cells: NIH 3T3/CCK2R cells (mouse fibroblast line overexpressing CCK2R, kept under G418 selection)
T1 sequence (P32239 1-447): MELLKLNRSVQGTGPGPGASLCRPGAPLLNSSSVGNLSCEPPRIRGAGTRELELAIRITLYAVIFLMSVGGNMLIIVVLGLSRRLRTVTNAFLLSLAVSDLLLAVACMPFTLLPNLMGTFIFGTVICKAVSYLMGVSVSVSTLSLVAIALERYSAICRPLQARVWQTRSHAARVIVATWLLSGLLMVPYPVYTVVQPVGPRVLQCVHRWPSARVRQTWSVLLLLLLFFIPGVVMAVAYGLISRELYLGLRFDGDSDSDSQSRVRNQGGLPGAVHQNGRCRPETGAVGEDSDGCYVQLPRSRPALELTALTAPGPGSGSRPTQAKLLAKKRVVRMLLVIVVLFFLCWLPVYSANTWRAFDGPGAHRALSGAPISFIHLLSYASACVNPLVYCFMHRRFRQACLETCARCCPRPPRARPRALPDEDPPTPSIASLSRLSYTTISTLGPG
Protocol: Assay (I): In Vitro Receptor Potency In vitro receptor potency was measured using a CCK2 receptor mediated calcium mobilization assay. The CCK2 receptor (gastrin receptor) signals via the heterotrimeric G-protein, Gq, to activate phospholipase C(PLC). This leads to generation of inositol-1,4,5-trisphosphate (IP3) that releases calcium from intracellular stores. The primary rise in cytosolic calcium concentration is followed by activation of calcium dependent calcium channels in the plasma membrane allowing extracellular calcium to enter the cell. The rise in calcium concentration is transient, but it can be measured in situ by loading the cells with a calcium dependent fluorescent probe and monitored by the use of 96- or 384-well fluorescence plate readers. In the current assay, NIH 3T3/CCK2R cells were seeded in black PolyLysin coated 384 well plates with clear bottom at 14000 cells per well and incubated overnight in 25 μl (per well) Gibco Nut. mix F-12 Glutamax medium with 10% FCS, 1% penicillin and streptomycin and 1 mg/ml […]418). The next day […] dye solution (Ca 5 probe from Molecular Devices, dissolved in HBSS/Hepes buffer pH 7.4 containing 0.1% Ovalbumin, 0.005% Tween 20, 3.5 μM Probenecid, 50 μM PDE inhibitor and 0.2% CaCl2) was added per well and the plate was incubated for 1 hour at room temperature. After incubation, these plates were loaded onto FLIPR Tetra from Molecular Devices together with the sample plates containing dilution series of gastrin analogues in HBSS/Hepes buffer with 30% DMSO. During the assay run, 1 μl sample was transferred from the sample plate to the assay plate. Beside the baseline fluorescence measurement, a second fluorescence measurement was performed after 30 seconds with both measurements using the […] 540 nm/590 nm. For each agonist concentration E=Emax. Emin was calculated. The concentration-response relationship was calculated using a four-parameter logistic model using non linear regression analysis (Prism 5.02, GraphPad Software). In vitro receptor potency of gastrin compounds was measured using Assay (I).

[4] = Table 2: N-terminal acylation/truncation series

Compound | half-life [1] [h] | half life [2] [min] | Relative Receptor Potency [3, 4] | Relative Receptor Potency ([3]; Table 3: acylation position (Lys scan) series)
CSCC[C@H](NC(=O)[C@H](Cc1c[nH]c2ccccc12)NC(=O)CNC(=O)[C@H](Cc1ccc(O)cc1)NC(=O)[C@H](C)NC(=O)[C@H](CCC(=O)O)NC(=O)[C@H](CCC(=O)O)NC(=O)[C@H](CCC(=O)O)NC(=O)[C@H](CCC(=O)O)NC(=O)[C@H](CCC(=O)O)NC(=O)[C@H](CC(C)C)NC(=O)[C@H](Cc1c[nH]c2ccccc12)NC(=O)[C@@H]1CCCN1C(=O)CNC(=O)[C@@H](N)CCC(N)=O)C(=O)N[C@@H](CC(=O)O)C(=O)N[C@@H](Cc1ccccc1)C(N)=O [gastrin-17, reference compound] | 0.058 ± 0.007 | 2 to 8 | – | –
CC(C)C[C@H](NC(=O)[C@H](Cc1c[nH]c2ccccc12)NC(=O)CNC(=O)[C@H](Cc1ccc(O)cc1)NC(=O)[C@H](C)NC(=O)[C@H](CCC(=O)O)NC(=O)[C@H](CCC(=O)O)NC(=O)[C@H](CCC(=O)O)NC(=O)[C@H](CCC(=O)O)NC(=O)COCCOCCNC(=O)COCCOCCNC(=O)CC[C@H](NC(=O)CCCCCCCCCCCCCCCCC(=O)O)C(=O)O)C(=O)N[C@@H](CC(=O)O)C(=O)N[C@@H](Cc1ccccc1)C(N)=O [N-α-#-[Leu15] Gastrin-17 (7-17), N-alpha-{2-(2-{2-[2-(2-{2-[4-Carboxy-4-(17-carboxyheptadecanoylamino)butyrylamino]ethoxy}-ethoxy)acetylamino]-ethoxy}ethoxy)acetyl}[Leu15] gastrin-17 (7-17)] ({C18 diacid-γGlu-AEEA-AEEA}-EEEEAYGWLDF-NH2) | ~95 | – | 39 | –
CC(C)C[C@H](NC(=O)[C@H](Cc1c[nH]c2ccccc12)NC(=O)CNC(=O)[C@H](Cc1ccc(O)cc1)NC(=O)[C@H](C)NC(=O)[C@H](CCC(=O)O)NC(=O)[C@H](CCC(=O)O)NC(=O)[C@H](CCC(=O)O)NC(=O)[C@H](CCC(=O)O)NC(=O)[C@H](CCC(=O)O)NC(=O)[C@H](CC(C)C)NC(=O)[C@H](Cc1c[nH]c2ccccc12)NC(=O)COCCOCCNC(=O)COCCOCCNC(=O)CC[C@H](NC(=O)CCCCCCCCCCCCCCCCC(=O)O)C(=O)O)C(=O)N[C@@H](CC(=O)O)C(=O)N[C@@H](Cc1ccccc1)C(N)=O [N-α-#-[Leu15] Gastrin-17 (4-17), N-alpha-{2-(2-{2-[2-(2-{2-[4-Carboxy-4-(17-carboxyheptadecanoylamino)butyrylamino]ethoxy}-ethoxy)acetylamino]-ethoxy}ethoxy)acetyl}[Leu15] gastrin-17 (4-17)] ({C18 diacid-γGlu-AEEA-AEEA}-WLEEEEEAYGWLDF-NH2) | 95 | – | 58 | –
CC(C)C[C@H](NC(=O)[C@H](Cc1c[nH]c2ccccc12)NC(=O)CNC(=O)[C@H](Cc1ccc(O)cc1)NC(=O)[C@H](C)NC(=O)[C@H](CCC(=O)O)NC(=O)[C@H](CCC(=O)O)NC(=O)[C@H](CCC(=O)O)NC(=O)[C@H](CCC(=O)O)NC(=O)[C@H](CCC(=O)O)NC(=O)[C@H](CC(C)C)NC(=O)[C@H](Cc1c[nH]c2ccccc12)NC(=O)[C@@H]1CCCN1C(=O)CNC(=O)[C@H](CCC(N)=O)NC(=O)COCCOCCNC(=O)COCCOCCNC(=O)CC[C@H](NC(=O)CCCCCCCCCCCCCCCCC(=O)O)C(=O)O)C(=O)N[C@@H](CC(=O)O)C(=O)N[C@@H](Cc1ccccc1)C(N)=O [N-α-#-[Leu15] Gastrin-17, N-alpha-{2-(2-{2-[2-(2-{2-[4-Carboxy-4-(17-carboxyheptadecanoylamino)butyrylamino]ethoxy}-ethoxy)acetylamino]-ethoxy}ethoxy)acetyl}[Gln1,Leu15] gastrin-17] ({C18 diacid-γGlu-AEEA-AEEA}-QGPWLEEEEEAYGWLDF-NH2) | 109 ± 26 | – | 76 | 57
CSCC[C@H](NC(=O)[C@H](Cc1c[nH]c2ccccc12)NC(=O)CNC(=O)[C@H](Cc1ccc(O)cc1)NC(=O)[C@H](C)NC(=O)[C@H](CCC(=O)O)NC(=O)[C@H](CCC(=O)O)NC(=O)[C@H](CCC(=O)O)NC(=O)[C@H](CCC(=O)O)NC(=O)[C@H](CCC(=O)O)NC(=O)[C@H](CC(C)C)NC(=O)[C@H](Cc1c[nH]c2ccccc12)NC(=O)[C@@H]1CCCN1C(=O)CNC(=O)[C@H](CCC(N)=O)NC(=O)COCCOCCNC(=O)COCCOCCNC(=O)CC[C@H](NC(=O)CCCCCCCCCCCCCCCCC(=O)O)C(=O)O)C(=O)N[C@@H](CC(=O)O)C(=O)N[C@@H](Cc1ccccc1)C(N)=O [N-alpha-#-gastrin-17, N-alpha-{2-(2-{2-[2-(2-{2-[4-Carboxy-4-(17-carboxyheptadecanoylamino)butyrylamino]ethoxy}-ethoxy)acetylamino]-ethoxy}ethoxy)acetyl}[Gln1] gastrin-17 (A)] | 64 ± 6 | – | – | –
